Source: paper PMC6430387, “Vertebrate odorant binding proteins as antimicrobial humoral components of innate immunity for pathogenic microorganisms” (PLoS ONE, 2019)

Key:
Format in all cases: binding
porcine OBP (6-His-pOBP) [1] = target: T1, porcine OBP (6-His-pOBP) (Sus scrofa, UniProt P81245); test: direct fluorescence titration
T1 construct: monomer
T1 sequence (P81245 1-157): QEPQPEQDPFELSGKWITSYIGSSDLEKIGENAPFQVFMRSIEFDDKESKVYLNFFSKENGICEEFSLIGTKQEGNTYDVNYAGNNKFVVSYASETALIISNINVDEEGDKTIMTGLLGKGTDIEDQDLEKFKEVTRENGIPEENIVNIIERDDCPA

bovine OBP (6-His-bOBP) [2] = target: T2, bovine OBP (6-His-bOBP) (Bos taurus, UniProt P07435); test: direct fluorescence titration
T2 construct: domain-swapped homodimer
T2 sequence (P07435 1-159): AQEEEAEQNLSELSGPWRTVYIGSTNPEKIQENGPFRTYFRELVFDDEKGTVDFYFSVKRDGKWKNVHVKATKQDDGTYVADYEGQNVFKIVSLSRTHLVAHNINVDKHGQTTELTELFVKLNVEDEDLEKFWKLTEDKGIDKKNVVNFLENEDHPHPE

bovine OBP (6-His-bOBP) [3] = target: T2, bovine OBP (6-His-bOBP); test: retention on OBP-Ni-NTA agarose filter; chromatography-MS; details: 10-40 μM ligand loaded; submillimolar immobilised OBP; uncoupled resin as control
bovine OBP (6-His-bOBP) [4] = target: T2, bovine OBP (6-His-bOBP); test: competitive displacement of 1-aminoanthracene, fluorescence; details: read-out: Kdapp
porcine OBP (6-His-pOBP) [5] = target: T1, porcine OBP (6-His-pOBP); test: as above; details: read-out: Kdapp
porcine OBP (6-His-pOBP) [6] = target: T1, porcine OBP (6-His-pOBP); test: retention on OBP-Ni-NTA agarose filter, chromatography-MS; details: 0.34 μM ligand loaded; submillimolar immobilised OBP
porcine OBP (6-His-pOBP) [7] = target: T1, porcine OBP (6-His-pOBP); test: retention on OBP-Ni-NTA agarose filter; eluate quantified; details: 5 and 10 μM ligand loaded; submillimolar immobilised OBP; uncoupled resin as control

Nc1cccc2cc3ccccc3cc12 [1-aminoanthracene]
Kd (porcine OBP (6-His-pOBP) [1]): 0.77 µM
Kd (bovine OBP (6-His-bOBP) [2]): 0.72 µM

CCCC(=O)N[C@H]1CCOC1=O [C4AHL, N-butyryl-L-homoserine-lactone]
% retention (bovine OBP (6-His-bOBP) [3]): 63.2±5.8%-80.6±4.2%

CC(C)=CCC/C(C)=C/CC/C(C)=C/CO [farnesol]
IC50 (bovine OBP (6-His-bOBP) [4]): 3.7 µM
IC50 (porcine OBP (6-His-pOBP) [5]): 0.77 µM

CCCCCCCCCC(=O)CC(=O)N[C@H]1CCOC1=O [oxo-C12AHL, N-(3-oxododecanoil)-L-homoserine-lactone]
% bound (porcine OBP (6-His-pOBP) [6]): 89.2±2.4%

Cn1c2cccc(=O)c-2nc2ccccc21 [pyocyanin]
% retention (porcine OBP (6-His-pOBP) [7]): 66±13% and 85±15%
